Biological target: Phosphatidylinositol 3-kinase catalytic subunit type 3 (Homo sapiens, UniProt Q8NEB9)
Test: VPS34 Enzyme Assays: 100 nL compounds in DMSO are added to wells of a 384 well microtitre plate (Greiner 780076). At room temperature: 5 ul VPS34 reaction buffer (Invitrogen Assay Buffer Q (diluted 1 in 5 with nanopure water) plus 2 mM DTT and 2 mM MnCl2) containing ATP (20 uM, Promega) and 200 uM PI-PS substrate (Invitrogen PV5122) is added followed immediately by 5 ul VPS34 reaction buffer (as above) containing VPS34 (5 nM, Millennium Protein Sciences Group) and the mixture is incubated with shaking at room temperature for 1 hour. Then 5 ul VPS34 stop-detect mix (as per Invitrogen Adapta Assay kit (PV5009) instructions (contains kinase quench buffer, TR-FRET buffer, Adapta Eu anti-ADP antibody and Alexa Fluor 647 ADP tracer)) is added to quench the reaction. The plates are then incubated for 30 minutes at room temperature with shaking and then read on a BMG PheraStar Plus reader.

Phosphatidylinositol 3-kinase catalytic subunit type 3, sequence (Q8NEB9 whole entry): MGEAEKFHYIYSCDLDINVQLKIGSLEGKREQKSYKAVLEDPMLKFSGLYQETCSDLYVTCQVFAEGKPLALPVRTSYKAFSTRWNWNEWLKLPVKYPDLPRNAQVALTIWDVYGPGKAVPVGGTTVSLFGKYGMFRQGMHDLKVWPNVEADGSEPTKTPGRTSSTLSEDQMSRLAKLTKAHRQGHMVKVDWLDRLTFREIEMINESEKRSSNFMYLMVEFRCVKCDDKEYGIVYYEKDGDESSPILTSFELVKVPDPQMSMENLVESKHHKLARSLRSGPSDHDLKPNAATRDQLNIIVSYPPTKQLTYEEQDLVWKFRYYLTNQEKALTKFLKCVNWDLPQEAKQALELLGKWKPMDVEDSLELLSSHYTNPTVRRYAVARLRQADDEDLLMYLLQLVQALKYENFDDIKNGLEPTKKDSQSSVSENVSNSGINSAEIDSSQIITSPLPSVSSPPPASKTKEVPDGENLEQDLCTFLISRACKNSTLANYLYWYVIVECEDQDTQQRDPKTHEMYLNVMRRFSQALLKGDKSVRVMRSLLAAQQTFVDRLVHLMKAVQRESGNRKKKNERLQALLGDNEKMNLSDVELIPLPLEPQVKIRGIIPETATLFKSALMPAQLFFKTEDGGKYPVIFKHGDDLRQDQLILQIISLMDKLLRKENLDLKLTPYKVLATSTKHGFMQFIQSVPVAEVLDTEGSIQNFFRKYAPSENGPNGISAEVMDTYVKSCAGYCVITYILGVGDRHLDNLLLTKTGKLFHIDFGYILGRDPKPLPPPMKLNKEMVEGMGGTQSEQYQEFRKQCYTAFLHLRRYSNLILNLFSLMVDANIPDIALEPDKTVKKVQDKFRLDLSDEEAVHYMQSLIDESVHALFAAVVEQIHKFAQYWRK

IC50: < 10 nM
SMILES: CC(=O)Nc1cc(-c2cnc(C)c(NS(=O)(=O)c3ccc(C)cc3Cl)c2)ccn1
